Among the test systems are K-562 leukemia; OVCAR-4 ovarian; LOX IMVI melanoma; SR leukemia; HOP-92 NSCLC; RXF 393 renal; SK-OV-3 ovarian; UACC-62 melanoma; RPMI-8226 leukemia; PC-3 prostate.
Holding throughout (test): NCI tumour cell line growth inhibition, 48 h

Each structure is given as a SMILES string.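 Compound exposure: 48 hours, 5 concentrations, 96-well plates. GI50 = concentration required for 50% inhibition of growth. TGI: total growth inhibition.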

Take `OCCN1CCN2C=C(C3CCCC4N(CCO)CCN34)CCC21` (configuration not stated): the TGI was more than 61.5 µM in the assay on K-562 leukemia; more than 100 µM with OVCAR-4 ovarian; more than 100 µM in the assay on LOX IMVI melanoma; 26.3 µM with SR leukemia; more than 100 µM in the assay with HOP-92 NSCLC; more than 85 µM in the assay on RXF 393 renal. Moreover, the TGI in the assay with SK-OV-3 ovarian is more than 100 µM; with UACC-62 melanoma, more than 93.9 µM; in the assay on RPMI-8226 leukemia, 44.9 µM.
Regarding `NN1C(=O)C(CCO)S/C1=N/N=C1/SC(CCO)C(=O)N1N` (configuration not stated), the TGI with K-562 leukemia, with OVCAR-4 ovarian, with LOX IMVI melanoma, in the assay with SR leukemia, with HOP-92 NSCLC and in the assay on RXF 393 renal was more than 100 µM in each case. The TGI with SK-OV-3 ovarian, in the assay on UACC-62 melanoma and in the assay on RPMI-8226 leukemia was more than 100 µM each time.
Take `N/N=c1\c2ccccc2c2cc3c(cc12)/c(=N/N)c1ccccc13`: the TGI with K-562 leukemia, with OVCAR-4 ovarian, in the assay with SR leukemia, with HOP-92 NSCLC, with RXF 393 renal and in the assay on SK-OV-3 ovarian was more than 100 µM in each case. Also, the TGI in the assay with UACC-62 melanoma and in the assay on RPMI-8226 leukemia was more than 100 µM each time.
As for `CC#CC1C2CCCC1(CSc1ccccc1)NC(=O)O2` (configuration not stated), the TGI in the assay with K-562 leukemia, in the assay on OVCAR-4 ovarian, in the assay on SR leukemia, with HOP-92 NSCLC, in the assay on RXF 393 renal and in the assay on SK-OV-3 ovarian was more than 100 µM throughout. Also, the TGI with UACC-62 melanoma and in the assay with RPMI-8226 leukemia was more than 100 µM each time.
On to `O=C1c2cccc(NCCN=Cc3ccccc3O)c2C(=O)c2c(NCCN=Cc3ccccc3O)cccc21`, for which the GI50 with K-562 leukemia was 0.406 µM; with PC-3 prostate it was 1.03 µM; in the assay with LOX IMVI melanoma, 0.534 µM; in the assay with SR leukemia, 0.363 µM; with HOP-92 NSCLC it was 0.584 µM; in the assay on SK-OV-3 ovarian it was 1.5 µM. The GI50 with UACC-62 melanoma was 1.59 µM; with RPMI-8226 leukemia, 0.878 µM. For the same compound, the TGI with K-562 leukemia was 5.14 µM; in the assay on OVCAR-4 ovarian, 2.39 µM; with PC-3 prostate, 5.87 µM; in the assay with LOX IMVI melanoma, 2.44 µM; with HOP-92 NSCLC, 2.49 µM; in the assay with SK-OV-3 ovarian, 4.99 µM. Further, the TGI worked out at 4.86 µM with UACC-62 melanoma and 4.29 µM with RPMI-8226 leukemia.
Take `CC(C)NC(=O)CCN(C(=O)O)S(=O)(=O)c1ccc(NC(=O)c2ccccc2)cc1`: the TGI with K-562 leukemia was more than 64.5 µM; in the assay on OVCAR-4 ovarian it was more than 100 µM; in the assay with LOX IMVI melanoma, more than 61.7 µM; in the assay on SR leukemia, more than 83 µM; in the assay with HOP-92 NSCLC, more than 100 µM; in the assay with RXF 393 renal, more than 100 µM. In addition, the figures for the TGI with SK-OV-3 ovarian, in the assay with UACC-62 melanoma and with RPMI-8226 leukemia were more than 100 µM, more than 82.7 µM and more than 71.5 µM, respectively.
On to `Cc1ccc(NC(=O)/C(Cl)=C(/Cl)C(=O)O)cc1`, for which the TGI in the assay with K-562 leukemia was 23.5 µM; in the assay on OVCAR-4 ovarian, 33.1 µM; with LOX IMVI melanoma, 30.9 µM; with SR leukemia it was 53.6 µM; in the assay with HOP-92 NSCLC, 32.6 µM; with RXF 393 renal, 45.8 µM. For the same compound, the TGI amounted to 35.8 µM in the assay with SK-OV-3 ovarian, 29.7 µM with UACC-62 melanoma and 49.8 µM in the assay with RPMI-8226 leukemia.
For the compound `CC(=O)Nc1ccc(COC(O)CN2CCCCC2)cc1[N+](=O)[O-]` (configuration not stated), the TGI with K-562 leukemia, in the assay with OVCAR-4 ovarian, in the assay with PC-3 prostate, in the assay with SR leukemia, in the assay with HOP-92 NSCLC and in the assay on RXF 393 renal was more than 100 µM each time. Moreover, the TGI in the assay with UACC-62 melanoma and with RPMI-8226 leukemia was more than 100 µM in each case.
In the case of `Cc1ccc(S(=O)OCC23CC4CC(CC(C4)C2)C3)cc1` (configuration not stated), the TGI in the assay on K-562 leukemia, in the assay with OVCAR-4 ovarian, in the assay with LOX IMVI melanoma, in the assay with SR leukemia, with HOP-92 NSCLC and with RXF 393 renal was more than 100 µM each time. The TGI with SK-OV-3 ovarian, with UACC-62 melanoma and with RPMI-8226 leukemia was more than 100 µM throughout.
With `Clc1ccc(-c2cc(-c3ccccc3)nc(NCCNc3ccnc4cc(Cl)ccc34)n2)cc1`, the GI50 in the assay with K-562 leukemia is 1.62 µM; with OVCAR-4 ovarian it was 1.79 µM; with LOX IMVI melanoma it was 1.89 µM; in the assay on SR leukemia it was 1.59 µM; in the assay with HOP-92 NSCLC it was 1.32 µM; with RXF 393 renal, 1.19 µM. The values for the GI50 in the assay on SK-OV-3 ovarian, in the assay on UACC-62 melanoma and in the assay on RPMI-8226 leukemia were 1.71 µM, 1.84 µM and 2.03 µM, respectively. Also, the TGI in the assay with K-562 leukemia was 3.53 µM; with OVCAR-4 ovarian, 3.83 µM; in the assay on LOX IMVI melanoma it was 3.7 µM; with SR leukemia it was 4.56 µM; in the assay on HOP-92 NSCLC, 2.8 µM; in the assay with RXF 393 renal, 2.8 µM. In addition, the TGI in the assay on SK-OV-3 ovarian came out at 3.29 µM; with UACC-62 melanoma, 3.37 µM; in the assay with RPMI-8226 leukemia it was 4.54 µM.
For the compound `O=C(COC(=O)c1cccc2c(=O)c3ccccc3[nH]c12)Nc1ccc(C(=O)O)cc1`, the TGI is more than 100 µM with K-562 leukemia; more than 100 µM with OVCAR-4 ovarian; more than 10 µM in the assay on LOX IMVI melanoma; more than 100 µM in the assay with SR leukemia; more than 100 µM in the assay on HOP-92 NSCLC; more than 100 µM in the assay with RXF 393 renal. The TGI in the assay with SK-OV-3 ovarian and in the assay on UACC-62 melanoma was more than 100 µM in each case.
Regarding `CS(=O)(=O)CC(=O)c1ccccc1`, the TGI in the assay with K-562 leukemia, in the assay with OVCAR-4 ovarian, in the assay with PC-3 prostate, in the assay on LOX IMVI melanoma, in the assay with SR leukemia and in the assay on RXF 393 renal was more than 100 µM in each case. Also, the TGI in the assay with SK-OV-3 ovarian, with UACC-62 melanoma and in the assay on RPMI-8226 leukemia was more than 100 µM throughout.
In the case of `Oc1cc2ccccc2c(-c2c(O)c(O)cc3ccccc23)c1O`, the GI50 was 0.0738 µM in the assay with K-562 leukemia; 2.3 µM in the assay with OVCAR-4 ovarian; 2.17 µM in the assay with PC-3 prostate; 0.939 µM with LOX IMVI melanoma; 0.912 µM in the assay with SR leukemia; 1.87 µM in the assay with HOP-92 NSCLC. For the same compound, the GI50 is 1.68 µM in the assay on SK-OV-3 ovarian, 1.26 µM in the assay on UACC-62 melanoma and 0.743 µM with RPMI-8226 leukemia. Further, the TGI is 34.3 µM with OVCAR-4 ovarian; more than 52.2 µM in the assay with PC-3 prostate; 8.57 µM with LOX IMVI melanoma; more than 100 µM in the assay on SR leukemia; 16.3 µM in the assay with HOP-92 NSCLC; 17.3 µM in the assay on SK-OV-3 ovarian. Further, the TGI is 4.23 µM with UACC-62 melanoma and more than 28.2 µM in the assay with RPMI-8226 leukemia.

The values above are taken from PubChem BioAssay (NCI).
